This note sets out measurements from patent publication US9085576B2 (AMGEN INC., priority 2013, dated 2015).

In experiment [1] the test system is Abeta 40. The experiment in a line: In vivo inhibition of beta-secretase: Abeta 40 reduction in CSF and brain of the rat. The note with it: after 4 hrs; for % reduction of rat CSF levels at 10 pmk / % reduction of rat CSF levels (3 mpk): Abeta 40 in rat CSF; for % reduction of rat CSF levels at 10 pmk / % reduction of rat brain levels at 10 mpk: 10 mpk; for % reduction of rat brain levels at 10 mpk / % reduction of rat brain levels (3 mpk): Abeta 40 in rat brain.
Description: In Vivo Inhibition of Beta-Secretase
Several animal models, including mouse, rat, dog, and monkey, may be used to screen for inhibition of beta-secretase activity in vivo following administration of a test compound sample. […] A separate group of animals receive 2% hydroxypropyl methylcellulose, 1% Tween80 alone, containing no test compound, and serve as a vehicle-control group. At the end of the test period, animals are sacrificed and brain tissues, plasma or cerebrospinal fluid are collected. […] Homogenates are centrifuged at 355,000 g, 4° C. for 30 minutes. CSF or brain supernatants are then analyzed for the presence of A-beta peptide by specific sandwich ELISA assays based on ECL (Electrochemiluminescence) technology. For example, rat Abeta40 is measured using biotinylated-4G8 (Signet) as a capture antibody and Fab40 (an in-house antibody specific to the C-terminal of Abeta40) as a detection antibody.
Actual vehicles used: Oral: 2% HPMC, 1% Tween80, pH 2.2

For experiment [2], the target named is BACE (Homo sapiens (Human), UniProt P56817). Nature of the experiment: In vitro BACE cell-based assay (Aβ40 in conditioned medium, sandwich ELISA).
BACE, sequence (P56817 46-501, species assumed): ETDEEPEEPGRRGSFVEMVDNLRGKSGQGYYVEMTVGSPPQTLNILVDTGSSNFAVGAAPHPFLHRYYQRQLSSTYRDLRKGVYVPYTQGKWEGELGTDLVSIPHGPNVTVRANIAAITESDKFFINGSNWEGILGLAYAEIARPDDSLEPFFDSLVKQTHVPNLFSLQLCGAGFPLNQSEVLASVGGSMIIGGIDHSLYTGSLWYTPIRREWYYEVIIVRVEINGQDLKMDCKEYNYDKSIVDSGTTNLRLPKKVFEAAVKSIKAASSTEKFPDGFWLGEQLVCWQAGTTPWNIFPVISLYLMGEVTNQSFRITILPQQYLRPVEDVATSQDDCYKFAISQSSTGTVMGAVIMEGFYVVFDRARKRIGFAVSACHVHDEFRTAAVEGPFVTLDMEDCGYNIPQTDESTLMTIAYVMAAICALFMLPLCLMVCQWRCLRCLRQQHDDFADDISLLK
Experiment [3] concerns the target Cathepsin D (Cat D) (Homo sapiens (Human), UniProt P07339). Nature of the experiment: In vitro enzymatic Cathepsin D (Cat D) FRET assay. In kind it is biochemical. Conditions: read-out: CatD IC50.
In experiment [4] the target is Beta Secretase enzyme (BACE) (Homo sapiens (Human), UniProt P56817). The experiment in a line: In vitro enzymatic BACE FRET assay. Conditions: read-out: BACE1 Enzyme assay IC50. In kind it is biochemical.
Beta Secretase enzyme (BACE), sequence (P56817 46-501): as the sequence (P56817 46-501, species assumed) above

SMILES strings stand for the structures.

Cathepsin D (Cat D), sequence (P07339 65-412, species assumed): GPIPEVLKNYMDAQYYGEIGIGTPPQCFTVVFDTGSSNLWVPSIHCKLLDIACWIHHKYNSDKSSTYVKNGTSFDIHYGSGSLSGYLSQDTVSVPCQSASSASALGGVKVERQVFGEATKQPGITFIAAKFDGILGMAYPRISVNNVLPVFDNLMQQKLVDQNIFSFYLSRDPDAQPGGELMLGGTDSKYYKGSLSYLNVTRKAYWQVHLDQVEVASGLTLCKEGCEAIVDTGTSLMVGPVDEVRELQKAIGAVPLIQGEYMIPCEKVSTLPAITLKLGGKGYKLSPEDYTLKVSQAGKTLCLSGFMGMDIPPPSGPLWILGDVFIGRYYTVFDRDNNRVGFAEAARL

Turning to `NC1=N[C@](CF)(c2cc(NC(=O)c3ncc(Cl)cc3Cl)ccc2F)[C@H]2C[C@H]2O1` [Example 193], in experiment [1], the “% reduction of rat CSF levels at 10 pmk” value stood at 75%. The “% reduction of rat brain levels at 10 mpk” value (from here on “% reduction … at 10 mpk”) in experiment [1] stood at 67%. The IC50 in experiment [2] was found to be 0.0108 µM; in experiment [3], 875 µM; in experiment [4], 0.0449 µM.

On to `CC#CCOc1cnc(C(=O)Nc2ccc(F)c([C@@]3(CF)N=C(N)O[C@@H]4C[C@@H]43)c2)cn1` [Example 199, N-(3-((1R,5S,6R)-3-amino-5-(fluoromethyl)-2-oxa-4-azabicyclo[4.1.0]hept-3-en-5-yl)-4-fluorophenyl)-5-(but-2-yn-1-yloxy)pyrazine-2-carboxamide], for which the “% reduction of rat CSF levels at 10 pmk” value in experiment [1] is 62%. For the same compound, in experiment [1], the “% reduction … at 10 mpk” value is recorded as 42%. In addition, the results for the IC50 in experiment [2], in experiment [3] and in experiment [4] were 0.0005 µM, 959 µM and 0.0022 µM, respectively.

As to `N#Cc1cnc(C(=O)Nc2ccc(F)c([C@@]3(CF)N=C(N)O[C@@H]4C[C@@H]43)c2)c(Cl)c1` [Example 228, N-(3-((1R,5S,6R)-3-amino-5-(fluoromethyl)-2-oxa-4-azabicyclo[4.1.0]hept-3-en-5-yl)-4-fluorophenyl)-3-chloro-5-cyanopicolinamide], the “% reduction of rat CSF levels at 10 pmk” value in experiment [1] stood at 54%. The “% reduction … at 10 mpk” value in experiment [1] stood at 33%. Also, the IC50 in experiment [2] was 0.0059 µM; in experiment [3], 1010 µM; in experiment [4] it was 0.0419 µM.

Take `COc1cnc(C(=O)Nc2ccc(F)c([C@@]3(CF)N=C(N)O[C@@H]4C[C@@H]43)c2)c(Cl)c1` [Example 229, N-(3-((1R,5S,6R)-3-amino-5-(fluoromethyl)-2-oxa-4-azabicyclo[4.1.0]hept-3-en-5-yl)-4-fluorophenyl)-3-chloro-5-methoxypicolinamide]: the “% reduction of rat CSF levels at 10 pmk” value in experiment [1] came out at 41%. The “% reduction … at 10 mpk” value in experiment [1] worked out at 8%. Besides, the concentration for half-maximal inhibition (IC50) in experiment [2] stood at 0.0064 µM; in experiment [3], 956 µM; in experiment [4], 0.0341 µM.

As to `Cc1cc(OC(F)F)cnc1C(=O)Nc1ccc(F)c([C@@]2(C(F)F)N=C(N)O[C@@H]3C[C@@H]32)c1` [Example 237, N-(3-((1R,5S,6R)-3-amino-5-(difluoromethyl)-2-oxa-4-azabicyclo[4.1.0]hept-3-en-5-yl)-4-fluorophenyl)-5-(difluoromethoxy)-3-methylpicolinamide], the “% reduction of rat CSF levels at 10 pmk” value in experiment [1] is listed as 72%. Besides, in experiment [1], the “% reduction … at 10 mpk” value is 67%. The IC50 in experiment [2] came out at 0.0323 µM; in experiment [3] it was 327 µM; in experiment [4], 0.0377 µM.

For `NC1=N[C@@](c2cc(NC(=O)c3cnc(OC(F)F)cn3)ccc2F)(C(F)F)[C@H]2C[C@H]2O1` [Example 238, N-(3-((1R,5S,6R)-3-amino-5-(difluoromethyl)-2-oxa-4-azabicyclo[4.1.0]hept-3-en-5-yl)-4-fluorophenyl)-5-(difluoromethoxy) pyrazine-2-carboxamide], the “% reduction of rat CSF levels at 10 pmk” value in experiment [1] amounted to 8%. The “% reduction … at 10 mpk” value in experiment [1] is given as 16%. For the same compound, the IC50 in experiment [2] was found to be 0.0178 µM; in experiment [3] it was 5920 µM; in experiment [4], 0.0214 µM.

As for `NC1=N[C@](CF)(c2cc(NC(=O)c3ncc(Cl)cc3Cl)ccc2Cl)[C@H]2C[C@H]2O1` [Example 281, N-(3-((1R,5S,6R)-3-amino-5-(fluoromethyl)-2-oxa-4-azabicyclo[4.1.0]hept-3-en-5-yl)-4-chlorophenyl)-3,5-dichloropicolinamide], in experiment [1], the “% reduction of rat CSF levels (3 mpk)” value is recorded as 55 (3 mpk) %, the “% reduction of rat CSF levels at 10 pmk” value is reported as 70%, the “% reduction of rat brain levels (3 mpk)” value is recorded as 34 (3 mpk) % and the “% reduction … at 10 mpk” value turned out to be 72%. In experiment [2], this compound gave an IC50 of 0.006 µM. Besides, the IC50 in experiment [3] came out at 2870 µM. In experiment [4], the IC50 stood at 0.0441 µM.

As to `Cc1cc(C#N)cnc1C(=O)Nc1ccc(Cl)c([C@@]2(CF)N=C(N)O[C@@H]3C[C@@H]32)c1` [Example 283, N-(3-((1R,5S,6R)-3-amino-5-(fluoromethyl)-2-oxa-4-azabicyclo[4.1.0]hept-3-en-5-yl)-4-chlorophenyl)-5-cyano-3-methylpicolinamide], in experiment [1], the “% reduction of rat CSF levels (3 mpk)” value is reported as 61 (3 mpk) %, the “% reduction of rat CSF levels at 10 pmk” value stood at 75%, the “% reduction of rat brain levels (3 mpk)” value is reported as 44 (3 mpk) % and the “% reduction … at 10 mpk” value is given as 69%. Also, in experiment [2], the IC50 stood at 0.0075 µM. In experiment [3], the IC50 was determined as 1580 µM. Besides, in experiment [4], the IC50 amounted to 0.031 µM.

With `COc1cnc(C(=O)Nc2cc(C)c(F)c([C@@]3(C(F)F)N=C(N)O[C@@H]4C[C@@H]43)c2)cn1` [Example 299, N-(3-((1R,5S,6R)-3-amino-5-(difluoromethyl)-2-oxa-4-azabicyclo[4.1.0]hept-3-en-5-yl)-4-fluoro-5-methylphenyl)-5-methoxypyrazine-2-carboxamide], the “% reduction of rat CSF levels at 10 pmk” value in experiment [1] was 74%. For the same compound, the “% reduction … at 10 mpk” value in experiment [1] is reported as 62%. Also, the values for the half-maximal inhibitory concentration (IC50) in experiment [2], in experiment [3] and in experiment [4] were 0.014 µM, 465 µM and 0.0305 µM, respectively.

Take `Cc1cc(NC(=O)c2ncc(Cl)cc2F)cc([C@@]2(C(F)F)N=C(N)O[C@@H]3C[C@@H]32)c1F` [Example 302, N-(3-((1R,5S,6R)-3-amino-5-(difluoromethyl)-2-oxa-4-azabicyclo[4.1.0]hept-3-en-5-yl)-4-fluoro-5-methylphenyl)-5-chloro-3-fluoropicolinamide]: the “% reduction of rat CSF levels at 10 pmk” value in experiment [1] is 37%. Besides, the “% reduction … at 10 mpk” value in experiment [1] was 9%. The values for the IC50 in experiment [2], in experiment [3] and in experiment [4] were 0.0141 µM, 811 µM and 0.0315 µM, respectively.

Take `COc1ccc(C(=O)Nc2cc(C)c(F)c([C@@]3(C(F)F)N=C(N)O[C@@H]4C[C@@H]43)c2)nc1` [Example 304, N-(3-((1R,5S,6R)-3-amino-5-(difluoromethyl)-2-oxa-4-azabicyclo[4.1.0]hept-3-en-5-yl)-4-fluoro-5-methylphenyl)-5-methoxypicolinamide]: in experiment [1], the “% reduction of rat CSF levels at 10 pmk” value was 41%. Moreover, the “% reduction … at 10 mpk” value in experiment [1] was 20%. For the same compound, the IC50 in experiment [2] stood at 0.0359 µM; in experiment [3], 355 µM; in experiment [4] it was 0.0522 µM.

For the compound `COc1cnc(C(=O)Nc2ccc(F)c([C@@]3(C(F)F)N=C(N)O[C@@H]4C[C@@H]43)c2)c(F)c1` [Example 306, N-(3-((1R,5S,6R)-3-amino-5-(difluoromethyl)-2-oxa-4-azabicyclo[4.1.0]hept-3-en-5-yl)-4-fluorophenyl)-3-fluoro-5-methoxypicolinamide], the “% reduction of rat CSF levels at 10 pmk” value in experiment [1] turned out to be 13%. In addition, the “% reduction … at 10 mpk” value in experiment [1] is listed as −1%. The IC50 came to 0.0256 µM in experiment [2], 1040 µM in experiment [3] and 0.0419 µM in experiment [4].

In the case of `NC1=N[C@@](c2cc(NC(=O)c3ccc(OC(F)F)cn3)ccc2F)(C(F)F)[C@H]2C[C@H]2O1` [Example 312, N-(3-((1R,5S,6R)-3-amino-5-(difluoromethyl)-2-oxa-4-azabicyclo[4.1.0]hept-3-en-5-yl)-4-fluorophenyl)-5-(difluoromethoxy) picolinamide], the “% reduction of rat CSF levels at 10 pmk” value in experiment [1] was found to be 30%. Further, in experiment [1], the “% reduction … at 10 mpk” value was −1%. The half-maximal inhibitory concentration (IC50) in experiment [2] is 0.0179 µM; in experiment [3], 442 µM; in experiment [4], 0.0377 µM.

As for `N#Cc1cnc(C(=O)Nc2ccc(F)c([C@@]3(C(F)F)N=C(N)O[C@@H]4C[C@@H]43)c2)c(F)c1` [Example 388, N-(3-((1R,5S,6R)-3-amino-5-(difluoromethyl)-2-oxa-4-azabicyclo[4.1.0]hept-3-en-5-yl)-4-fluorophenyl)-5-cyano-3-fluoropicolinamide], the “% reduction of rat CSF levels at 10 pmk” value in experiment [1] is 21%. Besides, in experiment [1], the “% reduction … at 10 mpk” value is given as 4%. Also, the IC50 in experiment [2] was determined as 0.0069 µM; in experiment [3], 1270 µM; in experiment [4] it was 0.0352 µM.

Take `COCc1cc(C#N)cnc1C(=O)Nc1ccc(F)c([C@@]2(C(F)F)N=C(N)O[C@@H]3C[C@@H]32)c1` [Example 391, N-(3-((1R,5S,6R)-3-amino-5-(difluoromethyl)-2-oxa-4-azabicyclo[4.1.0]hept-3-en-5-yl)-4-fluorophenyl)-5-cyano-3-(methoxymethyl)picolinamide]: the “% reduction of rat CSF levels at 10 pmk” value in experiment [1] stood at 54%. The “% reduction … at 10 mpk” value in experiment [1] is on record as 24%. For the same compound, the figures for the IC50 in experiment [2], in experiment [3] and in experiment [4] were 0.0175 µM, 1350 µM and 0.0116 µM, respectively.

Regarding `NC1=N[C@@](c2cc(NC(=O)c3cnc(OCC4CC4)cn3)ccc2F)(C(F)F)[C@H]2C[C@H]2O1` [Example 415, N-(3-((1R,5S,6R)-3-amino-5-(difluoromethyl)-2-oxa-4-azabicyclo[4.1.0]hept-3-en-5-yl)-4-fluorophenyl)-5-(cyclopropylmethoxy)pyrazine-2-carboxamide], the “% reduction of rat CSF levels at 10 pmk” value in experiment [1] turned out to be 27%. Also, the “% reduction … at 10 mpk” value in experiment [1] was found to be 14%. The results for the half-maximal inhibitory concentration (IC50) in experiment [2], in experiment [3] and in experiment [4] were 0.0551 µM, 747 µM and 0.043 µM, respectively.

On to `NC1=N[C@@](c2cc(NC(=O)c3ncc(Cl)cc3CO)ccc2F)(C(F)F)[C@H]2C[C@H]2O1` [Example 419, N-(3-((1R,5S,6R)-3-amino-5-(difluoromethyl)-2-oxa-4-azabicyclo-[4.1.0]hept-3-en-5-yl)-4-fluorophenyl)-5-chloro-3-(hydroxymethyl)picolinamide], for which the “% reduction of rat CSF levels at 10 pmk” value in experiment [1] is given as 57%. In addition, in experiment [1], the “% reduction … at 10 mpk” value stood at 42%. In addition, the IC50 in experiment [2] is 0.0293 µM; in experiment [3] it was 276 µM; in experiment [4], 0.0332 µM.
